Measurements published in patent US20230121926A1, “METHODS FOR TISSUE REGENERATION AND KITS THEREFOR” (THE BOARD OF TRUSTEES OF THE LELAND STANFORD JUNIOR …, priority 2020, published 2023).

Tested on: human dermal fibroblasts
Test: scRNA-seq of strained human dermal fibroblasts in 3D collagen scaffolds
Type: cell-based
Description: Using this experimental system, in vivo dermal strain patterns were mimicked, imposing biaxial strain upon the fibroblasts, while also attenuating mechanotransduction in a subset of samples. The collagen scaffolds were enzymatically digested to obtain cellular suspensions of fibroblasts, which were then processed for scRNA-seq, as shown in FIGS. 2A and 2C. All single cell data were initially analyzed in a manner blinded to phenotype of origin. Following log-normalization, pooled data were subjected to semi-supervised Louvain-based clustering and embedded into UMAP-space (Seurat). Eight transcriptionally distinct subpopulations (cluster 0 to cluster 7) were identified among cells from the pooled data superset, as shown in FIG. 2D. When unblinded, considerable permissiveness among clusters were found across both phenotypes and biological replicates, consistent with the known heterogeneity among human dermal fibroblasts (FIG. 2D).
Fibroblast-populated 3D collagen scaffold experiments. Dermal fibroblasts were isolated from both porcine and human skin samples and cultured separately. Porcine skin was obtained from the unwounded (normal skin) areas of a euthanized red duroc pig. Human skin samples were obtained under the approved IRB (#54225) and collected from three surgical procedures; a breast mastectomy, an abdominoplasty, and a thighplasty (n=3 patients). Fibroblasts were isolated by mechanical and enzymatic digestion and cultured under standard conditions until passage 3. The primary fibroblast cultures were then used to create fibroblast-populated collagen hydrogels at final concentration of 200 k cells/mL and 2 mg/mL collagen (PureCol, Advanced Biomatrix, San Diego, Calif.), following protocols as described in Chen, K. et al, “Role of boundary conditions in determining cell alignment in response to stretch”, PNAS 115, 986-991, doi:10.1073/pnas.1715059115 (2018), the entire disclosure of which is hereby incorporated by reference in its entirety. In brief, collagen scaffolds were formulated in a cruciform shape in petri dishes with a PDMS coating (˜4 mm) on the bottom (FIG. 2B). Pins were pushed through the hydrogel cruciform arms to constrain the scaffolds in both directions for a 24h pre-culture period before being subjected to either no strain, 10% equibiaxial strain, or strain+FAKI treatment for an additional 48 hours (FIGS. 2A-2B, FIG. 9A). FAKI treatment was administered by adding 20 mM FAKI in DMSO into the culture media of the scaffolds to achieve a final concentration of 10 micromolar FAKI for 48 hours. Strain was imposed by removing the anchoring pins, manually extending the hydrogel cruciform arms, and pushing the pins back to hold the arms in the new, extended position. Nine Titanium (IV) oxide paint dots (Sigma-Aldrich) were applied on the surface of the central region of the gel (boxes in FIG. 9A) to track and quantify the imposed strains. A digital camera was used to image the markers before and after strain. Photographs of marker position were used to compute a single homogenous deformation gradient tensor F that provided the least-squares best fit mapping of the 9 marker positions from the undeformed to deformed positions by solving the overdetermined matrix equation: […]
Single cell barcoding, library preparation, and single cell RNA sequencing. After two days of increased (induction of strain) or inhibited (induction of strain+FAKI) mechanotransduction, collagen scaffolds were micro-dissected and enzymatically digested to obtain cellular suspensions of human fibroblasts for droplet-based microfluidic single cell RNA sequencing (scRNA-seq) using the 10× Chromium Single Cell platform (FIG. 2C) (Single Cell 3′ v3, 10× Genomics, USA). A droplet of the cell suspensions, reverse transcription master mix, and partitioning oil was loaded onto a single cell chip and processed on the Chromium Controller. […]

[1] = 10% strain, 10 micromolar FAKI, 48 hours

CN(c1ncccc1CNc1nc(Nc2ccc3c(c2)CC(=O)N3)ncc1C(F)(F)F)S(C)(=O)=O [VS-6062]
expression of AIMP3 [1]: increased | expression of MMP1 [1]: increased | expression of Mmp10 [1]: significantly upregulated | transcription of COL1A1 [1]: strongly reduced | transcription of COL3A1 [1]: strongly reduced | strain-induced pro-fibrotic, myofibroblast and mechanotransduction gene expression (ACTA2, PDGFRA, RUNX1, ZEB2, MAPK1, PI3KR1, EGFR, RAC1, YAP1) (strained fibroblasts with FAKI): abrogated nearly all of these fibrotic signaling changes
